According to patent publication US5389614A (Cassella AG, priority 1991, dated 1995):
Where two headings read alike, the source gives them in different places.

Tests used:
[1] = molecular target: T1, fibrinogen receptor (glycoprotein IIb/IIIa) (Homo sapiens, UniProt P05106+P08514); assay: Inhibition of bonding of 125I-fibrinogen to its receptor on intact, gel-filtered human platelets; format: binding; conditions: inhibition of 125I-fibrinogen bonding after stimulation with ADP (10 μM), read-out: K1 (μm), ADP stimulated
T1 construct: its receptor (glycoprotein IIb/IIIa) on intact, gel-filtered human platelets; endogenous in cells; host or cells: gel-filtered human platelets from donor blood, stimulated with ADP (10 µM)
Protocol: (§1) The compounds are tested above all for their inhibiting action on blood platelet aggregation and the adhesion of fibrinogen to blood platelets.
(§2) Gel-filtered blood platelets from human donor blood activated with ADP or thrombin are used.
A) Inhibition of bonding of fibrinogen to its receptor (glycoprotein IIb/IIIa) on intact, gel-filtered human platelets by the compounds according to the invention is tested. The Ki value of the inhibition of the bonding of ^125 I-fibrinogen after stimulation with ADP (10 μM) is stated.
Literature: J. S. Bennett and G. Vilaire, J. Clin. Invest. 64 (1979), 1393-1401

[2] = test system: gel-filtered human platelets; assay: Inhibition of aggregation of gel-filtered human platelets after ADP or thrombin stimulation; format: cell-based; conditions: platelet aggregation
Protocol: as §1, §2
B) As a functional test, the inhibition of aggregation of gel-filtered human platelets by the compounds according to the invention after ADP or thrombin stimulation is measured. The IC50 value of the inhibition is stated.

[3] = ADP stimulation, read-out: IC50 (μM), ADP-stimulated
[4] = thrombin stimulation, read-out: IC50 (μM), Thrombin-stimulated
[5] = Homo sapiens, ADP stimulation, read-out: IC50 (μM), ADP-stimulated
[6] = Homo sapiens, thrombin stimulation, read-out: IC50 (μM), Thrombin-stimulated

T1 sequence (P08514 32-887 limits assumed): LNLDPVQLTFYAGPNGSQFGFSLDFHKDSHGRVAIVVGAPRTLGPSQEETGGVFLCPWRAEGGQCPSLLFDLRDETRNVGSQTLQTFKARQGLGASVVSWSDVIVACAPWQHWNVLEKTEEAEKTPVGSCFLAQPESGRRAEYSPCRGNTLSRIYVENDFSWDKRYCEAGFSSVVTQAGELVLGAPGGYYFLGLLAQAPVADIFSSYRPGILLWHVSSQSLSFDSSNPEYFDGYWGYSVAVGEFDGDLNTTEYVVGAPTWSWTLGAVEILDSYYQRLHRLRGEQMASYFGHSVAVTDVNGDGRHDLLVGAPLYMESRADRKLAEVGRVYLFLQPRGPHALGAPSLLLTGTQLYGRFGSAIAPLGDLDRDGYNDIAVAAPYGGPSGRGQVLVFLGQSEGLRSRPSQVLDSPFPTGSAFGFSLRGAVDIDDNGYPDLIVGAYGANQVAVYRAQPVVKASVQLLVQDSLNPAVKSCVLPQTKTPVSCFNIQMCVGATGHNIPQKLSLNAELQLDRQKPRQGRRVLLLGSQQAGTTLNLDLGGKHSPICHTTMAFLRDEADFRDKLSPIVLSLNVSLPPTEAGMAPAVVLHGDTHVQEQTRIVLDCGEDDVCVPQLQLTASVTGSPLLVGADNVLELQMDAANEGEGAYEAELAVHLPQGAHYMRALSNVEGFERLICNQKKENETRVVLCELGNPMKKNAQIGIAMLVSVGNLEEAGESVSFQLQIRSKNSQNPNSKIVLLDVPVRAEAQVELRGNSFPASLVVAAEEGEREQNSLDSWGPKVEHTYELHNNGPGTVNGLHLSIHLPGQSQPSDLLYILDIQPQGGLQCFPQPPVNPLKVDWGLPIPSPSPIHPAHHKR
T1 sequence (P08514 891-1039 partner limits assumed): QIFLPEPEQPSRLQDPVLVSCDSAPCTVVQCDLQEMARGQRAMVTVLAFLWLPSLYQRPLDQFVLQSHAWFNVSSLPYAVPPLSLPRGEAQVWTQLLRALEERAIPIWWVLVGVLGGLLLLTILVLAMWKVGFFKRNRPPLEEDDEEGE
T1 sequence (P05106 27-788): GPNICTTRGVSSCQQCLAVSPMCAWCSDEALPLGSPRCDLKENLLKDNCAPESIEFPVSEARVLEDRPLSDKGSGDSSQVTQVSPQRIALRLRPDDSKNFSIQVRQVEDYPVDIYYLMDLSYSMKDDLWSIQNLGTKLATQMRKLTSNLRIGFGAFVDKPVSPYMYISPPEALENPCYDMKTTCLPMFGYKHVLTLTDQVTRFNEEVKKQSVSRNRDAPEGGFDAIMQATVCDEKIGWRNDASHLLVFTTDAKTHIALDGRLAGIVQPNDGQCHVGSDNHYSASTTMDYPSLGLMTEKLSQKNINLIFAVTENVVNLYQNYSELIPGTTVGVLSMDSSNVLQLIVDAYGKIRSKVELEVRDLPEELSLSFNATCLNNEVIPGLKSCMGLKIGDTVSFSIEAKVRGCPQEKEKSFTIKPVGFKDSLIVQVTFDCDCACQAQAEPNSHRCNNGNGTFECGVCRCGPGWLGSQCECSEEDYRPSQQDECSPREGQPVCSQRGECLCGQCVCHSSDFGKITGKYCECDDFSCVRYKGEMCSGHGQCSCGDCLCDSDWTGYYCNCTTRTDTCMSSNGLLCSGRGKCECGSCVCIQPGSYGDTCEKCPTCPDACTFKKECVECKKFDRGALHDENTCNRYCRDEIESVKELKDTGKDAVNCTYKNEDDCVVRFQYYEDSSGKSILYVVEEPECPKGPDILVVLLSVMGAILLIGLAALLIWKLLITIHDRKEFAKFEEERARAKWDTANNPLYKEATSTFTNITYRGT

| SMILES | IC50 [2, 3] [µM] | IC50 [2, 4] [µM] | Ki [1] [nM] | IC50 [2, 5] [µM] | IC50 [2, 6] [µM] |
| --- | --- | --- | --- | --- | --- |
| N=C(N)c1ccc(CC2NC(=O)N(CC(=O)NCCC(=O)O)C2=O)cc1 (racemic) [Example 6, [5-(S,R)-(4-Formamidino-benzyl) -2,4-dioxoimidazolidin-3-yl]-acetyl-β-alanine] | 5.5 | 3 | 1910 | – | – |
| CC(C)[C@H](NC(=O)[C@H](CC(=O)O)NC(=O)CN1C(=O)NC(Cc2ccc(C(=N)N)cc2)C1=O)C(=O)O (stereo partly drawn) [Example 1, [5-(S,R )-(4-Formamidino-benzyl)-2,4-dioxoimidazolidin-3-yl]-acetyl-L-aspartyl-L-valine.] | 0.4 | 0.15 | 31 | – | – |
| CC(C)[C@H](NC(=O)[C@H](CC(=O)O)NC(=O)CN1C(=O)[C@H](CCCNC(=N)N)N(C)C1=O)C(=O)O [Example 2] | – | – | 400 | 4.5 | 1.5 |
| CC(C)[C@H](NC(=O)[C@H](CC(=O)O)NC(=O)CN1C(=O)N[C@@H](Cc2ccc(N)cc2)C1=O)C(=O)O [Example 7] | – | – | 2430 | – | – |
| CC(C)[C@H](NC(=O)[C@H](CC(=O)O)NC(=O)CN1C(=O)N[C@@H](Cc2ccc(NC(=N)N)cc2)C1=O)C(=O)O [Example 8] | – | – | 710 | 6 | 3 |
| CC(C)[C@H](NC(=O)[C@H](CC(=O)O)NC(=O)c1cccc(N2C(=O)N[C@@H](CCCNC(=N)N)C2=O)c1)C(=O)O [Example 11, 3-(5-(S)-(3-Guanidinopropyl)-2,4-dioxoimidazolidin-3-yl)benzoyl-L-aspartyl-L-valine] | – | – | 1870 | – | – |
| N=C(N)c1ccc(CC2NC(=O)N(CC(=O)N[C@@H](CC(=O)O)C(=O)N[C@@H](Cc3ccccc3)C(=O)O)C2=O)cc1 (stereo partly drawn) [Example 14, (5-(R,S)-(4-Formamidinobenzyl)-2,4-dioxo-imidazolidin-3-yl)-acetyl-L-aspartyl-L-phenylalanine] | 0.55 | 0.3 | 270 | – | – |
| NCc1ccc(C=C2NC(=O)N(CC(=O)N[C@@H](CC(=O)O)C(=O)N[C@H](C(=O)O)c3ccccc3)C2=O)cc1 [Example 15] | – | – | 280 | 0.7 | 0.45 |
| C[C@@H](O)[C@H](NC(=O)[C@H](CC(=O)O)NC(=O)CN1C(=O)NC(Cc2ccc(C(=N)N)cc2)C1=O)C(=O)O (stereo partly drawn) [Example 16, (5-(R,S)-(4-Formamidinobenzyl)-2,4-dioxo-imidazolidin-3-yl) -acetyl-L-aspartyl-L-threonine] | 0.7 | 0.2 | 120 | – | – |
| CC(C)[C@H](NC(=O)[C@H](CC(=O)O)NC(=O)CCN1C(=O)N[C@@H](CCCCN)C1=O)C(=O)O [Example 32] | – | – | 2710 | 6 | 2 |

Second part, led by results:

| IC50 [2, 3] [µM] | IC50 [2, 4] [µM] | SMILES | Ki [1] [nM] | IC50 [2, 5] [µM] | IC50 [2, 6] [µM] |
| --- | --- | --- | --- | --- | --- |
| 30 | 4 | CC(C)[C@H](NC(=O)[C@H](CC(=O)O)NC(=O)CN1C(=O)N[C@@H](CCCCN)C1=O)C(=O)O [Example 3, [5-(S)-(4-Amino-butyl)-2,4-dioxoimidazolidin-3-yl]-acetyl-Asp-Val-OH] | – | – | – |
| 0.2 | 0.1 | N=C(N)c1ccc(CC2NC(=O)N(CC(=O)N[C@@H](CC(=O)O)C(=O)N[C@H](C(=O)O)c3ccccc3)C2=O)cc1 (stereo partly drawn) [Example 5, [5-(S,R)-(4-Formamidino-benzyl) -2,4-dioxoimidazolidin-3-yl]-acetyl-L-aspartyl-L-phenylglycine] | 22 | – | – |
| 0.2 | 0.1 | CC[C@H](C)[C@H](NC(=O)[C@H](CC(=O)O)NC(=O)CN1C(=O)NC(Cc2ccc(C(=N)N)cc2)C1=O)C(=O)O (stereo partly drawn) [Example 12, (5-(R,S)-(4-Formamidinobenzyl)-2,4-dioxo-imidazolidin-3-yl)-acetyl-L-aspartyl-L-isoleucine] | 42 | – | – |
| 0.35 | 0.4 | N=C(N)c1ccc(CC2NC(=O)N(CC(=O)N[C@@H](CC(=O)O)C(=O)N[C@@H](CCCCN)C(=O)O)C2=O)cc1 (stereo partly drawn) [Example 13, (5-(R, S)-(4-Formamidinobenzyl)-2,4-dioxo-imidazolidin-3-yl) -acetyl-L-aspartyl-L-lysine] | 42 | – | – |
| 4.5 | 4 | CCCCCCCCCCCCCCCCOC(=O)[C@@H](NC(=O)[C@H](CC(=O)O)NC(=O)CN1C(=O)NC(Cc2ccc(C(=N)N)cc2)C1=O)c1ccccc1 (some centres unmarked) [Example 17] | – | – | – |
| 7 | 2.5 | NCc1ccc(CC2NC(=O)N(CC(=O)N[C@@H](CC(=O)O)C(=O)N[C@H](C(=O)O)c3ccccc3)C2=O)cc1 (stereo partly drawn) [Example 19, (5-(4-Aminomethylbenzyl)-2,4-dioxo-imidazolidin-3-yl)-acetyl-L-aspartyl-L-phenyglycine] | – | – | – |
| 4.5 | 2.5 | CN(C(=O)[C@H](CC(=O)O)NC(=O)CN1C(=O)NC(Cc2ccc(C(=N)N)cc2)C1=O)[C@H](C(=O)O)c1ccccc1 (stereo partly drawn) [Example 20, (5-(R,S)-(4-Formamidinobenzyl)-2,4-dioxo-imidazolidin-3-yl)-acetyl-L-aspartyl-(N-methyl)-L-phenylglycine] | 1590 | – | – |
| 0.7 | 0.3 | CC(C)[C@H](NC(=O)[C@H](CC(=O)O)NC(=O)CN1C(=O)NC(Cc2ccc(C(=N)N)cc2)C1=O)C(=O)OCc1ccccc1 (stereo partly drawn) [Example 21, (5-(R,S)-(4-Formamidinobenzyl) -2,4-dioxo-imidazolidin-3-yl) -acetyl-L-aspartyl-L-valine benzyl ester] | 240 | – | – |
| 0.8 | 0.25 | N=C(N)c1ccc(CC2NC(=O)N(CC(=O)N[C@@H](CC(=O)O)C(=O)N[C@@H](Cc3c[nH]c4ccccc34)C(=O)O)C2=O)cc1 (stereo partly drawn) [Example 22, (5-(R,S)-(4-Formamidinobenzyl)-2,4-dioxo-imidazolidin-3-yl)-acetyl-L-aspartyl-L-tryptophan] | 140 | – | – |
